Where two headings read alike, the source gives them in different places.
Experiments:
[1] = molecular target: site IQ of complex I (Rattus norvegicus, UniProt A6K8N6+P03889+Q641Y2); assay: Mitochondrial ROS/H2O2 production (Amplex Red/HRP), glutamate+malate+succinate with ATR, no inhibitor; assay type: biochemical
Method: (§1) Rates of ROS/H2O2 production from heart mitochondria were assessed through the oxidation of the colorless, non-fluorescent indicator Amplex Red in the presence of exogenous horseradish peroxidase (HRP, EC 1.11.1.7, Sigma). H2O2 reacts with Amplex Red in a 1:1 stoichiometry, yielding the fluorescent compound resorufin (excitation: 560 nm; emission: 585 nm) which is stable once formed. Fluorescence was measured continuously with a spectro-fluorometer equipped with temperature control and stirring (SAFAS Xenius, Monaco). Isolated mitochondria (0.1 mg/mL) were incubated in the same experimental buffer than previously, supplemented with 15 μM Amplex Red and 10 μg/mL HRP. Glutamate (5 mM)/malate (2.5 mM) together with succinate (5 mM) were used as complex I and complex II substrates, respectively. Experiments were conducted under non-phosphorylating conditions in the presence of 15 μM atractyloside, i.e., under state IV conditions where […]. Afterwards, rotenone (1.5 μM), antimycin A (2 μM), and myxothiazol (0.2 μM) were sequentially added to inhibit the redox centers within the electron transfer chain (FIG. 2), namely sites IQ, IF (with rotenone), IIIQi (with antimycin A) and IIIQO (with myxothiazol). Assay was finally calibrated with known amounts of H2O2 (steps of 300 nM), in the presence of all relevant compounds, including AOL. The control test of the absence of effect of AOL on the Amplex Red assay itself and NAD(P)H oxidase ROS/H2O2 production was carried out in the absence of cardiac mitochondria and the presence of NAD(P)H oxidase (EC 1.6.3.3, 5 mU/mL, Sigma) and NADH (100 μM) solutions.
Rates of ROS/H2O2 production from heart mitochondria were assessed through the oxidation of the colorless, non-fluorescent indicator Amplex Red in the presence of exogenous horseradish peroxidase (HRP, EC 1.11.1.7, Sigma). H2O2 reacts with Amplex Red in a 1:1 stoichiometry, yielding the fluorescent compound resorufin (excitation: 560 nm; emission: 585 nm) which is stable once formed. Fluorescence was measured continuously with a spectro-fluorometer equipped with temperature control and stirring (SAFAS Xenius, Monaco).
(§2) Isolated mitochondria (0.1 mg/mL) were incubated in the same experimental buffer than previously, supplemented with 15 μM Amplex Red and 10 μg/mL HRP. Glutamate (5 mM)/malate (2.5 mM) together with succinate (5 mM) were used as complex I and complex II substrates, respectively. Experiments were conducted under non-phosphorylating conditions in the presence of 15 μM atractyloside. Afterwards, rotenone (1.5 μM), antimycin A (2 μM), and myxothiazol (0.2 μM) were sequentially added to inhibit the redox centers within the electron transfer chain (see FIG. 2), namely sites IQ, IF (with rotenone), IIIQi (with antimycin A) and IIIQO (with myxothiazol). Assay was finally calibrated with known amounts of H2O2 (steps of 300 nM), in the presence of all relevant compounds, including AOX. The control test of the absence of effect of AOL, AOX and Oltipraz on the Amplex Red assay itself and NAD(P)H oxidase […] production was carried out in the absence of cardiac mitochondria and the presence of NAD(P)H oxidase (EC 1.6.3.3, 5 mU/mL, Sigma) and NADH (100 μM) solutions.

[2] = tested on: NAD(P)H oxidase; assay: Non-mitochondrial ROS/H2O2 production by NAD(P)H oxidase (Amplex Red); assay type: biochemical; settings: no mitochondria; for effect on ROS measurement with NAD(P)H oxidase: 10 to 100 μM; for averaged percentage of ROS production across all concentrations tested: NAD(P)H oxidase, FIG. 22A
Method: as §1
The specificity of AOL was further tested in vitro using the peroxidase-Amplex Red system utilized for the measurement of ROS/H2O2 by mitochondria, which in fact measures the appearance of H2O2 by the oxidation of Amplex Red to the fluorescent resorufin (see FIG. 4). In the absence of mitochondria and by adding instead a H2O2-producing system to the measuring system, it was possible to test the effect of AOL on this system. This has been carried out by using commercial NAD(P)H oxidase which produces H2O2 in the presence of added NAD(P)H and measuring the reduction of Amplex Red to resorufin (FIG. 4).
as §2
The mechanism of action of AOX was further tested in vitro using the peroxidase-Amplex Red system utilized for the measurement of ROS/H2O2 by mitochondria, which in fact measures the appearance of H2O2 by the oxidation of Amplex Red to the fluorescent resorufin (FIG. 22). In the absence of mitochondria and by adding instead a H2O2-producing system to the assay, it was possible to test the effect of AOX on this non-mitochondrial superoxide/H2O2 production. This has been carried out by using commercial NAD(P)H oxidase which produces H2O2 in the presence of added NAD(P)H and measuring the reduction of Amplex Red to resorufin. […]

Sequence of site IQ of complex I (A6K8N6 entry or part of it): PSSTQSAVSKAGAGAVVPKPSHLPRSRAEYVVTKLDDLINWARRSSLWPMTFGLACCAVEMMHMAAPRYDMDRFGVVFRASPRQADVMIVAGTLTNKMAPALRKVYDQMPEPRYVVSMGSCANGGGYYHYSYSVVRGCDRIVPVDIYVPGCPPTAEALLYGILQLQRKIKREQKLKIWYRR
Sequence of site IQ of complex I (P03889 whole entry): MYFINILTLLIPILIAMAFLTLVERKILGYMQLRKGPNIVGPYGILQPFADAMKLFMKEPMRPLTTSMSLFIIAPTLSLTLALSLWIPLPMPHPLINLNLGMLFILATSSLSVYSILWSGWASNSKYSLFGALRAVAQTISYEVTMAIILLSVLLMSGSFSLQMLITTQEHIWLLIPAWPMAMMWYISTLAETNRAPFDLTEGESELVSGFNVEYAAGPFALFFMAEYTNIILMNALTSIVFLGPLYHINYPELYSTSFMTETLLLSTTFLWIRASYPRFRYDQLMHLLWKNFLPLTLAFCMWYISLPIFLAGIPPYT
Sequence of site IQ of complex I (Q641Y2 34-463): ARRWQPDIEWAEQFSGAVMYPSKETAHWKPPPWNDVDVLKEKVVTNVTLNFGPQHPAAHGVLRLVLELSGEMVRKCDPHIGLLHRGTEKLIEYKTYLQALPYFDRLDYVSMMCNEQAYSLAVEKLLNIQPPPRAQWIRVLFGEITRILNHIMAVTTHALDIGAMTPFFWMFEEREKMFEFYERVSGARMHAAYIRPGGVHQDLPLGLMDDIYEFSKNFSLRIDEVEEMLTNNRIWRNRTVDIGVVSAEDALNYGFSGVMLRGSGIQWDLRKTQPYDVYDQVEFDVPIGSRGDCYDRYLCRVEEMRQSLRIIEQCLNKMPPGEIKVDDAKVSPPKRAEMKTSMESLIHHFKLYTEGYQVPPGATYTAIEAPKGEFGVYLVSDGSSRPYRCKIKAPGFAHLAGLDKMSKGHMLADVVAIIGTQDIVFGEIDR

Oc1ccc(-c2cc(=S)ss2)cc1 [AOX, 5-(4-hydroxyphenyl)-3H-1,2-dithiole-3-thione]
lowest concentration showing an inhibitory effect on ROS production by site IQ ([1]; AOX 2.5 to 20 μM, glutamate, malate, succinate, ATR): 2.5 µM
IC50 ([1]; AOX 2.5 to 20 μM, glutamate, malate, succinate, ATR, read-out: estimated IC50 on ROS production by site IQ): ~9.5 µM
Hill coefficient ([1]; fit of FIG. 21): 2.616±0.5706
Maximum (fit parameter) ([1]; fit of FIG. 21): 554.045±19.73
Minimum (fit parameter) ([1]; fit of FIG. 21): −72.5272±68.64
IC50 ([1]; fit of FIG. 21, read-out: IC50 (fit parameter)): 9.47 ± 1.02 µM
effect on ROS measurement with NAD(P)H oxidase [2]: no global effect
averaged percentage of ROS production across all concentrations tested [2]: 109.9%

COc1ccc(-c2cc(=S)ss2)cc1 [AOL, 5-(4-methoxyphenyl)-3H-1,2-dithiole-3-thione]
decrease of ROS/H2O2 production measured in the absence of inhibitor ([1]; AOL 5 to 80 μM, glutamate, malate, succinate, only ATR present): approximately 80%
effect on ROS measurement with NAD(P)H oxidase [2]: no global effect
averaged percentage of ROS production across all concentrations tested [2]: 99.2%
inhibition of fluorescence in NAD(P)H oxidase/Amplex Red system ([2]; results not shown): did not observe any inhibition

Source: patent US11484529B2, “Desmethylanethole trithione derivatives for the treatment of diseases linked to mitochondrial reactive oxygen species (ROS) production” (OP2 Drugs, priority 2017, dated 2022)
